For test [1], the system named is platelet aggregation. Briefly: Impedance platelet aggregometry in whole blood spiked with ticagrelor +/- Antibody 1. In kind it is cell-based, human. Particulars: ticagrelor 3 μM. How it is done:
In the second study, whole blood was spiked with vehicle, ticagrelor (3 μM), or ticagrelor (3 μM)+Antibody 1 (125, 250, and 500 nM). Platelet aggregation was measured with the same methodology following induction by ADP (6.4 μM) or thrombin receptor activating peptide-6 (TRAP-6, 32 μM).

Test [2] has as its system platelet aggregation. The experiment in a line: Impedance platelet aggregometry in whole blood spiked with aspirin +/- Antibody 1. In kind it is cell-based. Particulars: Homo sapiens, aspirin 1 mg/mL. The procedure:
Two studies were conducted concurrently. Blood specimens were obtained in EDTA and citrate tubes (6 healthy donors for each study). In the first study, whole blood was spiked with vehicle, aspirin (1 mg/mL), or aspirin (1 mg/mL)+Antibody 1 (125, 250, and 500 nM). Platelet aggregation was measured by impedance platelet aggregometry following induction with collagen (3.2 μg/mL) or arachidonic acid (0.5 mM) (Multiplate® analyzer, COLtest and ASPItest reagents; Roche Diagnostics International Ltd, Rotkreuz, Switzerland).

The next test relates to thrombin generation. The experiment in a line: Thrombin generation in platelet-rich plasma, Calibrated Automated Thrombogram. It is filed as biochemical, human. Particulars: tissue factor reagent, abciximab 50 nM. How it is done: (§1) Whole blood was obtained in EDTA and citrate tubes (6 healthy donors). Specimens were spiked with vehicle, Antibody 1 (250, 500, or 1000 nM), or abciximab (50 nM). Platelet aggregation was recorded following induction using collagen (1 μg/mL) or TRAP-6 (8 μM) using a multiplate impedance aggregometer. The area under the curve (AUC) for platelet aggregation was determined in arbitrary aggregation*time (AU*min). Thrombin generation was also measured at the above Antibody 1 and abciximab concentrations in platelet-rich plasma using Thrombinoscope CAT (Calibrated Automated Thrombogram; Stago CH S.A. and tissue factor reagent (1 μM); fluorescence was measured by an automated plate reader fluorometer.

Test [3] has as its system platelet aggregation. The experiment in a line: Whole blood platelet aggregation, multiplate impedance aggregometer (Example 1). It is filed as cell-based, human. To be noted: collagen 1 μg/mL, Antibody 1 250, 500 or 1000 nM, abciximab 50 nM, vs vehicle. The procedure: as §1

Usually inhibition stands for how much of the control response was suppressed.

Where two headings read alike, the source gives them in different places.

`CCCSc1nc(N[C@@H]2C[C@H]2c2ccc(F)c(F)c2)c2nnn([C@@H]3C[C@H](OCCO)[C@@H](O)[C@H]3O)c2n1` [ticagrelor]: the inhibition at 3 µM in the test with platelet aggregation [1] (Homo sapiens, Platelet, ADP 6.4 μM, p<0.05, read-out: inhibition of platelet aggregation induced with ADP) is 54%. For the same molecule, the “inhibition of platelet aggregation induced with TRAP-6” value in the test on platelet aggregation [1] (TRAP-6 32 μM, p<0.05) was 31%.

As for `CC(=O)Oc1ccccc1C(=O)O` [aspirin], the inhibition at 1000 µg/mL is 71% with platelet aggregation [2] (arachidonic acid 0.5 mM, p<0.05, read-out: inhibition of platelet aggregation induced with arachidonic acid) and 60% in the test with platelet aggregation [2] (collagen 3.2 μg/mL, p<0.05, read-out: inhibition of platelet aggregation induced with collagen).

B1: abciximab (antibody, chains of the INN, looked up, V domains shown)
VH: EVQLQQSGTVLARPGASVKMSCEASGYTFTNYWMHWVKQRPGQGLEWIGAIYPGNSDTSYIQKFKGKAKLTAVTSTTSVYMELSSLTNEDSAVYYCTLYDGYYVFAYWGQGTLVTVSA
VL: EIVLTQSPVTLSVTPGDSVSLSCRASRDISNNLHWFQQTSHESPRLLIKYASQSMSGIPSRFSGSGSGTDFTLSINSVETEDFGMYFCQQTNSWPYTFGGGTKLEIK
modifications: Fab
For B1, in the test with thrombin generation, the “effect on thrombin generation” value is “no effect”. For the same molecule, in the test with platelet aggregation [3], the “platelet aggregation induced by collagen” value is listed as “significant reductions”.
